The conditions of series [1]: mouse; cited from earlier work.
The target in series [2] is rat liver monoaminoxydase. In words: I.M.A.O. activity: inhibition of rat liver monoaminoxydase (spectrophotometric, kynuramine as substratum). The series is classed as biochemical. Particulars: 50% inhibition. The procedure:
The inhibiting activity of the envisaged guanyl hydrazones in relation to rat liver monoaminoxydase was determined by means of a spectrophotometric method, using kynuramine as substratum.
The I.M.A.O. activity was determined for various concentrations of guanyl hydrazone. The concentrations for which one obtains 50% inhibition relate to the pI 50, which is calculated as follows: […]
For each concentration about ten experiments are carried out, from which the mean activity Yi is determined. Only concentrations giving a Yi between 15 and 85% of activity are retained.
Assume N concentrations Ci retained; to each Ci there correspond a certain number ni of experiments and a mean activity Yi.
Assume in all NT=Σni experiments.
(a) The equation of the straight line Yi =f (Ci) is calculated by the method of least squares.
To this straight line there are attached different statistic tests to express its validity, as straight line only.
Then the corresponding concentration is deduced for Y=50%.
(b) Statistical calculations permit evaluation of the legitimacy of the linear model. These calculations take account of all the points, that is to say NT experiments, whereas the straight line is determined from the mean activities only, which means that these calculations take account of the dispersion which affects every average.
(c) Calculation of the confidence interval for α=0.05.
The pI50 s of the compounds 1 to 7 appearing in Table I above were calculated by application of the method as just described; they have been listed in Table II below: […]

The subject of the next series is Lipidium sativum. In words: Inhibition of the growth of the root meristem of Lipidium sativum (vegetable cells). The series is classed as in vivo. The procedure:
The test of the inhibition of the growth of the root meristem of Lipidium sativum was used, which test is used to evaluate the cytostatic action of series of drugs. It consists in placing germinated grains of Lipidium sativum in 15 ml. of aqueous solution containing 1% of methyl cellulose, in which the guanyl hydrazones are placed in suspension.
After leaving in darkness for 24 hours at the temperature of 27° C., the elongation of the root in comparison with that of a control batch (Li Lipidium sativum grain in methyl cellulose medium) is determined.
The validity of the linear model was evaluated with the aid of test F: [formula]
In the example supplied, for the calculation of the confidence interval for α=0.05, one finds:
that is to say one has five chances per hundred, if one repeats another series of measurements, of finding a pI 50 outside this limit.

Series [3] deals with fibro-sarcomas induced by methyl cholanthrene, tumour cells in culture. The experiment in a line: Tumour culture: inhibition of multiplication of methyl cholanthrene-induced fibro-sarcoma cells in vitro. The format is cell-based. Particulars: Rattus norvegicus. The procedure: A supplementary study of the activity of these products upon the inhibition of growth of animal cells was effected by tumour culture. On fibro-sarcomas induced by methyl cholanthrene (O. Flandre et coll. C.R. Jour. biol. 1966. 160 152) the products were tested: upon tumour cells in culture "in vitro" and upon treated rats.
1. upon tumour cells in culture "in vitro" the results of the tested products are reported in Table IV below, which expresses the cellular count at the 72nd hour after sub-culture, in the presence of the substances to be studied.
The results are expressed in percentage of diminution of the number of cells in comparison with the control.
The determinations were effected with the products at three molar concentrations: 10^-4, 10^-5 and 10^-6.
This concerns fibro-sarcomas induced by methyl cholanthrene according to a technique described by O. FLANDRE, I. CIURANA, J. SECCHI and M. DAMON: Reports of the Sittings of the Biology Society, Volume 160, No. 1, 1966, page 152.
The products can be tested either upon tumour cells cultivated in vitro, or upon the rat treated by tumour cell injections either in situ or by intraperitoneal injection.
The preliminary experiments carried out with the substances according to the invention, tested on tumour cells cultivated in vitro, disclose a retardation of the cellular multiplication.

A further series concerns Rat fibroblast cultures. The experiment in a line: Action upon cultures of trypsinised fibroblasts. The format is cell-based. Particulars: read-out: percentage of inhibition in comparison with the control, heading: percentage of inhibition in comparison with the control, 10^-4 M, 48 and 72 hours. The procedure: Rat fibroblast cultures are concerned and the strains have been maintained for several years.
For single-layer cultivation in Roux flasks, Trypsinisation at 0.25% detaches the cells from the flask on the one hand and from one another on the other hand.
The cells are distributed in lamellated tubes at the rate of 250,000 cells per ml., where they are deposited.
The products to be tested are introduced at different dilutions, and left to act for 48 and 72 hours.
Next, the counting of the cells is effected (10 fields for 5 blades) and the results obtained are compared with control tumours which have not received the product to be tested.

For series [4], the system named is rat embryo cultures (muscle fragment). In words: Culture in explants: mitotic index of rat embryo cultures. The series is classed as cell-based. The procedure: This concerns rat embryo cultures kept for at least 6 months (muscle fragment). The explants are placed in culture in plasma coagulum (cock plasma). The cultures are fed with nutrient medium (Hanx+embryonary extract+decomplemented calf foetus serum). 24 hours after placing in plasma coagulum, the product to be tested is added at different dilutions. The cultures are examined on the 4th day and the counting of the number of mitoses is effected in the growth zone of the explants. The percentage of each of the phases of the mitosis is determined for the whole (mitotic index).

A further series deals with platelet aggregation. In words: Platelet anti-aggregant action (BORN's method). The series is classed as cell-based, human or rabbit. Particulars: platelet-rich plasma, human blood or rabbit's blood; Table V; read-out: PI50 (platelet aggregation) (converted). The procedure:
The determination of the platelet aggregability was effected according to BORN's method, using a LABINTEC aggregometer.
Firstly a platelet-rich plasma (or PRP) and next a platelet-poor plasma (or PPP or PDP) are prepared from human blood or rabbit's blood, and the apparatus is calibrated.
Then the aggregating power of the plasma (PRP) is determined in relation to the PDP in the presence and in the absence of guanyl hydrazone. Thus it is possible to determine the percentage of inhibition of platelet aggregation as a function of the concentration. The curves obtained permit of determining a pI 50. […]

The subject of series [5] is fibro-sarcomas induced by methyl cholanthrene, tumour cells in culture. In words: Tumour culture: inhibition of multiplication of methyl cholanthrene-induced fibro-sarcoma cells in vitro. Particulars: Rattus norvegicus, read-out: percentage of inhibition in comparison with the control; heading: percentage of inhibition in comparison with the control; B3 tumour culture, 10^-3 M. The series is classed as cell-based.

The next series deals with ADN. Particulars: cited from earlier work.
Series [6] has as its system synthesis of nucleic acids. Particulars: cited from earlier work.
In series [7] the test system is leukaemias, Hodgkin's disease. Particulars: cited from earlier work.

The text below walks through data of patent publication US4226885A, “Guanylhydrazones and medicaments containing them” (Choay S.A., priority 1977, dated 1980).

Where two headings read alike, the source gives them in different places. Where only a bound is given, the exact number is not on record here.

Consider `N=C(N)NN=Cc1ccc([N+](=O)[O-])o1` [5-nitrofurfuraldehyde guanyl hydrazone], for which the anti-tumoral activity result in [1] is “a certain anti-tumoral activity in the mouse”.

In the case of `N=C(N)NN=CCOc1ccc(Cl)cc1` [Compound 4], the “pI 50” value in series [2] is on record as 4.70. Besides, the “pI 50 (guanyl hydrazones)” value with Lipidium sativum (50% inhibition of root growth, 24 hours, 27° C., darkness) turned out to be 5.14±0.08. Also, the IC50 in the series on Lipidium sativum (50% inhibition of root growth, 24 hours, 27° C., darkness, read-out: pI 50 (guanyl hydrazones) (converted)) was 7.24 µM; with platelet aggregation it was 562 µM. Also, in the series on Lipidium sativum (Lipidium sativum test), the “inhibiting activity (root growth, in words)” value is on record as “great inhibiting activity”. Further, the inhibition at 100 µM in series [3] (72 h, 10^-4 molar, 72nd hour after sub-culture, read-out: percentage of diminution of the number of cells in comparison with the control) was 36.8%; in series [3] (concentration of 10^-4 mol, read-out: retardation of the cellular multiplication) it was above 30%; with Rat fibroblast cultures, around 77%. Further, the inhibition at 10 µM in series [3] (72 h, 10^-5 molar, 72nd hour after sub-culture, read-out: percentage of diminution of the number of cells in comparison with the control) stood at 23.7%. Also, the inhibition at 1 µM in [3] (72 h, 10^-6 molar, 72nd hour after sub-culture, read-out: percentage of diminution of the number of cells in comparison with the control) was found to be 7.89%. The mitotic index in series [4] (4th day, control culture 2.5%) turned out to be 1.2%. For the same compound, the “number of mitoses at the metaphase level” value in series [4] (vs control culture) was “significant reduction of the number of mitoses at the metaphase level”. Besides, in series [5], the inhibition at 1000 µM is around 45%.

As to `CC(C=NNC(=N)N)=NNC(=N)N` [methyl-glyoxal-bis (guanyl hydrazone)], the “complex formation with ADN” value in the series with ADN is given as “forms complexes with ADN”. Besides, in series [6], the “inhibition of nucleic acid synthesis” value is on record as “inhibits the synthesis of nucleic acids”. In series [7] (Hodgkin's disease), the “action in Hodgkin's disease” value is recorded as “sometimes but rarely efficacious”. Also, the “action in acute myeloblastic and promyelocytary leukaemias” value in series [7] (acute myeloblastic and promyelocytary leukaemias) is “action has been verified”. The “action in acute transformations of chronic myeloid leukaemia and other leukaemias” value in series [7] (acute transformations of chronic myeloid leukaemia and other leukaemias) is given as “less efficacious”. Moreover, the “side effects on administration” value in series [7] (in vivo) was “various cutaneous, digestive and metabolic troubles, in particular hypoglycaemia”.
